{"source": "the supplement of paper PMC10307832", "assay_in_all_cases": "relative viability (nuclei count vs DMSO), 5 days (fraction); higher = more cells survive", "key": {"ABC-1": {"system": "ABC-1", "how_it_was_run": "(§1)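 After 5 days of treatment, lung cancer cells in 1536-well plates were fixed and stained in a single step (final 0.05% Triton X-100, 1% formaldehyde, 1 ug/ml Hoechst) and their nuclei counted on 4× images. Treatment had been applied by pin tool the day after seeding as one drug alone or as a fixed anchor-drug dose with five library-drug doses (not always all listed) in √10 steps. Relative viability is the nuclei count of treated wells divided by that of vehicle wells, and values are medians of duplicate plates.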"}, "COR-L23": {"system": "COR-L23", "how_it_was_run": "as §1"}, "ChaGo-K-1": {"system": "ChaGo-K-1", "how_it_was_run": "as §1"}, "EMC-BAC-2": {"system": "EMC-BAC-2", "how_it_was_run": "as §1"}, "HARA": {"system": "HARA", "how_it_was_run": "as §1"}, "HCC-15": {"system": "HCC-15", "how_it_was_run": "as §1"}, "HCC-366": {"system": "HCC-366", "how_it_was_run": "as §1"}, "HCC-78": {"system": "HCC-78", "how_it_was_run": "as §1"}, "HOP-62": {"system": "HOP-62", "how_it_was_run": "as §1"}, "LC-2-ad": {"system": "LC-2-ad", "how_it_was_run": "as §1"}, "NCI-H1944": {"system": "NCI-H1944", "how_it_was_run": "as §1"}, "NCI-H1993": {"system": "NCI-H1993", "how_it_was_run": "as §1"}, "NCI-H2023": {"system": "NCI-H2023", "how_it_was_run": "as §1"}, "NCI-H2126": {"system": "NCI-H2126", "how_it_was_run": "as §1"}, "NCI-H2228": {"system": "NCI-H2228", "how_it_was_run": "as §1"}, "NCI-H23": {"system": "NCI-H23", "how_it_was_run": "as §1"}, "NCI-H2405": {"system": "NCI-H2405", "how_it_was_run": "as §1"}, "NCI-H358": {"system": "NCI-H358", "how_it_was_run": "as §1"}, "NCI-H838": {"system": "NCI-H838", "how_it_was_run": "as §1"}, "SK-LU-1": {"system": "SK-LU-1", "how_it_was_run": "as §1"}}, "data": [{"compound": "O=c1cc(-c2cccc3c2Sc2ccccc2S3)oc(N2CCOCC2)c1", "note": "+ C[C@@H](Oc1cc(-c2cnn(C3CCNCC3)c2)cnc1N)c1c(Cl)ccc(F)c1Cl [Crizotinib] (partner 1 µM)", "values": [{"measurement": "relative viability", "setting": "ABC-1; first compound 0.08 µM", "result": 1.27}, {"measurement": "relative viability", "setting": "ABC-1; first compound 0.253 µM", "result": 1.24}, {"measurement": "relative viability", "setting": "ABC-1; first compound 0.8 µM", "result": 1.05}, {"measurement": "relative viability", "setting": "ABC-1; first compound 2.53 µM", "result": 1.31}, {"measurement": "relative viability", "setting": "ABC-1; first compound 8 µM", "result": 1.49}, {"measurement": "relative viability", "setting": "COR-L23; first compound 0.08 µM", "result": 0.744}, {"measurement": "relative viability", "setting": "COR-L23; first compound 0.253 µM", "result": 0.876}, {"measurement": "relative viability", "setting": "COR-L23; first compound 0.8 µM", "result": 0.792}, {"measurement": "relative viability", "setting": "COR-L23; first compound 2.53 µM", "result": 0.737}, {"measurement": "relative viability", "setting": "COR-L23; first compound 8 µM", "result": 0.616}, {"measurement": "relative viability", "setting": "ChaGo-K-1; first compound 0.08 µM", "result": 1.09}, {"measurement": "relative viability", "setting": "ChaGo-K-1; first compound 0.253 µM", "result": 1.35}, {"measurement": "relative viability", "setting": "ChaGo-K-1; first compound 0.8 µM", "result": 1.25}, {"measurement": "relative viability", "setting": "ChaGo-K-1; first compound 8 µM", "result": 1.22}, {"measurement": "relative viability", "setting": "EMC-BAC-2; first compound 0.08 µM", "result": 0.856}, {"measurement": "relative viability", "setting": "EMC-BAC-2; first compound 0.253 µM", "result": 0.753}, {"measurement": "relative viability", "setting": "EMC-BAC-2; first compound 0.8 µM", "result": 0.841}, {"measurement": "relative viability", "setting": "EMC-BAC-2; first compound 2.53 µM", "result": 0.784}, {"measurement": "relative viability", "setting": "EMC-BAC-2; first compound 8 µM", "result": 0.817}, {"measurement": "relative viability", "setting": "HARA; first compound 0.08 µM", "result": 0.971}, {"measurement": "relative viability", "setting": "HARA; first compound 0.253 µM", "result": 1.12}, {"measurement": "relative viability", "setting": "HARA; first compound 0.8 µM", "result": 1}, {"measurement": "relative viability", "setting": "HARA; first compound 2.53 µM", "result": 1.05}, {"measurement": "relative viability", "setting": "HARA; first compound 8 µM", "result": 1.28}, {"measurement": "relative viability", "setting": "HCC-15; first compound 0.08 µM", "result": 0.952}, {"measurement": "relative viability", "setting": "HCC-15; first compound 0.253 µM", "result": 0.934}, {"measurement": "relative viability", "setting": "HCC-15; first compound 0.8 µM", "result": 1.01}, {"measurement": "relative viability", "setting": "HCC-15; first compound 2.53 µM", "result": 0.857}, {"measurement": "relative viability", "setting": "HCC-15; first compound 8 µM", "result": 0.827}, {"measurement": "relative viability", "setting": "HCC-366; first compound 0.08 µM", "result": 0.53}, {"measurement": "relative viability", "setting": "HCC-366; first compound 0.253 µM", "result": 0.731}, {"measurement": "relative viability", "setting": "HCC-366; first compound 0.8 µM", "result": 0.725}, {"measurement": "relative viability", "setting": "HCC-366; first compound 2.53 µM", "result": 0.498}, {"measurement": "relative viability", "setting": "HCC-366; first compound 8 µM", "result": 1.1}, {"measurement": "relative viability", "setting": "HCC-78; first compound 0.08 µM", "result": 0.286}, {"measurement": "relative viability", "setting": "HCC-78; first compound 0.253 µM", "result": 0.34}, {"measurement": "relative viability", "setting": "HCC-78; first compound 0.8 µM", "result": 0.291}, {"measurement": "relative viability", "setting": "HCC-78; first compound 2.53 µM", "result": 0.342}, {"measurement": "relative viability", "setting": "HCC-78; first compound 8 µM", "result": 0.34}, {"measurement": "relative viability", "setting": "HOP-62; first compound 0.08 µM", "result": 0.842}, {"measurement": "relative viability", "setting": "HOP-62; first compound 0.253 µM", "result": 0.998}, {"measurement": "relative viability", "setting": "HOP-62; first compound 0.8 µM", "result": 0.989}, {"measurement": "relative viability", "setting": "HOP-62; first compound 2.53 µM", "result": 0.653}, {"measurement": "relative viability", "setting": "HOP-62; first compound 8 µM", "result": 0.904}, {"measurement": "relative viability", "setting": "LC-2-ad; first compound 0.08 µM", "result": 0.392}, {"measurement": "relative viability", "setting": "LC-2-ad; first compound 0.253 µM", "result": 0.499}, {"measurement": "relative viability", "setting": "LC-2-ad; first compound 0.8 µM", "result": 0.525}, {"measurement": "relative viability", "setting": "LC-2-ad; first compound 2.53 µM", "result": 0.436}, {"measurement": "relative viability", "setting": "LC-2-ad; first compound 8 µM", "result": 0.509}, {"measurement": "relative viability", "setting": "NCI-H1944; first compound 0.08 µM", "result": 1.12}, {"measurement": "relative viability", "setting": "NCI-H1944; first compound 0.253 µM", "result": 1.23}, {"measurement": "relative viability", "setting": "NCI-H1944; first compound 0.8 µM", "result": 1.17}, {"measurement": "relative viability", "setting": "NCI-H1944; first compound 8 µM", "result": 1.08}, {"measurement": "relative viability", "setting": "NCI-H1993; first compound 0.08 µM", "result": 0.838}, {"measurement": "relative viability", "setting": "NCI-H1993; first compound 0.253 µM", "result": 1.01}, {"measurement": "relative viability", "setting": "NCI-H1993; first compound 0.8 µM", "result": 0.89}, {"measurement": "relative viability", "setting": "NCI-H1993; first compound 2.53 µM", "result": 0.871}, {"measurement": "relative viability", "setting": "NCI-H1993; first compound 8 µM", "result": 0.99}, {"measurement": "relative viability", "setting": "NCI-H2023; first compound 0.08 µM", "result": 0.673}, {"measurement": "relative viability", "setting": "NCI-H2023; first compound 0.253 µM", "result": 0.682}, {"measurement": "relative viability", "setting": "NCI-H2023; first compound 0.8 µM", "result": 0.787}, {"measurement": "relative viability", "setting": "NCI-H2023; first compound 2.53 µM", "result": 0.648}, {"measurement": "relative viability", "setting": "NCI-H2023; first compound 8 µM", "result": 0.646}, {"measurement": "relative viability", "setting": "NCI-H2126; first compound 0.08 µM", "result": 1.02}, {"measurement": "relative viability", "setting": "NCI-H2126; first compound 0.253 µM", "result": 1.09}, {"measurement": "relative viability", "setting": "NCI-H2126; first compound 0.8 µM", "result": 1.17}, {"measurement": "relative viability", "setting": "NCI-H2126; first compound 2.53 µM", "result": 0.994}, {"measurement": "relative viability", "setting": "NCI-H2126; first compound 8 µM", "result": 1.04}, {"measurement": "relative viability", "setting": "NCI-H2228; first compound 0.08 µM", "result": 0.407}, {"measurement": "relative viability", "setting": "NCI-H2228; first compound 0.253 µM", "result": 0.506}, {"measurement": "relative viability", "setting": "NCI-H2228; first compound 0.8 µM", "result": 0.399}, {"measurement": "relative viability", "setting": "NCI-H2228; first compound 2.53 µM", "result": 0.394}, {"measurement": "relative viability", "setting": "NCI-H2228; first compound 8 µM", "result": 0.354}, {"measurement": "relative viability", "setting": "NCI-H23; first compound 0.08 µM", "result": 0.442}, {"measurement": "relative viability", "setting": "NCI-H23; first compound 0.253 µM", "result": 0.564}, {"measurement": "relative viability", "setting": "NCI-H23; first compound 0.8 µM", "result": 0.626}, {"measurement": "relative viability", "setting": "NCI-H23; first compound 2.53 µM", "result": 0.572}, {"measurement": "relative viability", "setting": "NCI-H23; first compound 8 µM", "result": 0.522}, {"measurement": "relative viability", "setting": "NCI-H2405; first compound 0.08 µM", "result": 0.831}, {"measurement": "relative viability", "setting": "NCI-H2405; first compound 0.253 µM", "result": 0.887}, {"measurement": "relative viability", "setting": "NCI-H2405; first compound 0.8 µM", "result": 0.832}, {"measurement": "relative viability", "setting": "NCI-H2405; first compound 2.53 µM", "result": 0.759}, {"measurement": "relative viability", "setting": "NCI-H2405; first compound 8 µM", "result": 0.853}, {"measurement": "relative viability", "setting": "NCI-H358; first compound 0.08 µM", "result": 0.629}, {"measurement": "relative viability", "setting": "NCI-H358; first compound 0.253 µM", "result": 0.634}, {"measurement": "relative viability", "setting": "NCI-H358; first compound 0.8 µM", "result": 0.657}, {"measurement": "relative viability", "setting": "NCI-H358; first compound 2.53 µM", "result": 0.466}, {"measurement": "relative viability", "setting": "NCI-H358; first compound 8 µM", "result": 0.574}, {"measurement": "relative viability", "setting": "NCI-H838; first compound 0.08 µM", "result": 0.883}, {"measurement": "relative viability", "setting": "NCI-H838; first compound 0.253 µM", "result": 0.988}, {"measurement": "relative viability", "setting": "NCI-H838; first compound 0.8 µM", "result": 0.82}, {"measurement": "relative viability", "setting": "NCI-H838; first compound 2.53 µM", "result": 0.794}, {"measurement": "relative viability", "setting": "NCI-H838; first compound 8 µM", "result": 0.816}, {"measurement": "relative viability", "setting": "SK-LU-1; first compound 0.08 µM", "result": 0.812}, {"measurement": "relative viability", "setting": "SK-LU-1; first compound 0.253 µM", "result": 1.04}, {"measurement": "relative viability", "setting": "SK-LU-1; first compound 0.8 µM", "result": 1.14}, {"measurement": "relative viability", "setting": "SK-LU-1; first compound 2.53 µM", "result": 0.905}, {"measurement": "relative viability", "setting": "SK-LU-1; first compound 8 µM", "result": 0.849}]}]}
